Columns and labels:
Assay type in all cases: cell-based
[1] = tested on: pathogens of clinical samples; assay: Molecular phenotypic antimicrobial susceptibility test of clinical samples, extraction DNA purification step prior to PCR (Table 6)
In short: (§1)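 Patient specimens in boric acid preservative were culture-incubated, diluted to 0.5 McFarland and exposed for 12-16 hours to antimicrobials in broth at their sensitivity breakpoint concentration(s), with a no-drug well for pathogen load. Growth was then measured by semi-quantitative PCR, either after DNA purification (e.g. magnetic beads) or directly after lysis-buffer treatment without extraction.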

Escherichia coli [2] = assay: Molecular phenotypic antimicrobial susceptibility test (extraction or DNA purification prior to PCR)
In short: as §1

[3] = tested on: pathogens of clinical samples; assay: Molecular phenotypic antimicrobial susceptibility test of clinical samples, direct PCR without a separate DNA purification step (Table 6)
In short: as §1

Escherichia coli [4] = assay: Traditional culture-based antimicrobial susceptibility test
In short: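 E. coli isolates underwent conventional growth, isolation and exposure to antimicrobials, giving a culture-based susceptibility call for each agent.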

[5] = E. coli, clinical sample of r10-r24
[6] = E. coli, clinical sample of r158-r172
[7] = K. aerogenes, clinical sample of r136-r150
[8] = K. pneumoniae, clinical sample of r121-r135
[9] = M. morganii, clinical sample of r55-r69
[10] = M. morganii, clinical sample of r70-r84
[11] = P. mirabilis, clinical sample of r25-r39
[12] = P. mirabilis, clinical sample of r40-r54

## CO/N=C(\C(=O)N[C@@H]1C(=O)N2C(C(=O)O)=C(CSc3nc(=O)c(=O)[nH]n3C)CS[C@H]12)c1csc(N)n1 [Ceftriaxone]
[1]; [5]
  Molecular Antibiotic Susceptibility Result: Sensitive (Antimicrobial wells with pathogen load detected below the control wells (typically >2 cycle thresholds later) may be reported as Sensitive)
[1]; E. coli, clinical sample of r10-r24, Ct Control Avg 18.112
  Ct: 26.029
[1]; [6]
  Molecular Antibiotic Susceptibility Result: Sensitive (Antimicrobial wells with pathogen load detected below the control wells (typically >2 cycle thresholds later) may be reported as Sensitive)
[1]; E. coli, clinical sample of r158-r172, Ct Control Avg 20.146
  Ct: 29.851
[1]; [7]
  Molecular Antibiotic Susceptibility Result: Sensitive (Antimicrobial wells with pathogen load detected below the control wells (typically >2 cycle thresholds later) may be reported as Sensitive)
[1]; K. aerogenes, clinical sample of r136-r150, Ct Control Avg 19.994
  Ct: 33.124
[1]; [8]
  Molecular Antibiotic Susceptibility Result: Sensitive (Antimicrobial wells with pathogen load detected below the control wells (typically >2 cycle thresholds later) may be reported as Sensitive)
[1]; K. pneumoniae, clinical sample of r121-r135, Ct Control Avg 24.272
  Ct: 33.145
[1]; [9]
  Molecular Antibiotic Susceptibility Result: Sensitive (Antimicrobial wells with pathogen load detected below the control wells (typically >2 cycle thresholds later) may be reported as Sensitive)
[1]; M. morganii, clinical sample of r55-r69, Ct Control Avg 28.86
  Ct: 35.749
[1]; [10]
  Molecular Antibiotic Susceptibility Result: Sensitive (Antimicrobial wells with pathogen load detected below the control wells (typically >2 cycle thresholds later) may be reported as Sensitive)
[1]; M. morganii, clinical sample of r70-r84, Ct Control Avg 27.053
  Ct: 36.141
[1]; [11]
  Molecular Antibiotic Susceptibility Result: Sensitive (Antimicrobial wells with pathogen load detected below the control wells (typically >2 cycle thresholds later) may be reported as Sensitive)
[1]; P. mirabilis, clinical sample of r25-r39, Ct Control Avg 26.064
  Ct: 29.277
[1]; [12]
  Molecular Antibiotic Susceptibility Result: Sensitive (Antimicrobial wells with pathogen load detected below the control wells (typically >2 cycle thresholds later) may be reported as Sensitive)
[1]; P. mirabilis, clinical sample of r40-r54, Ct Control Avg 26.987
  Ct: 32.789
Escherichia coli [2]; E. coli isolate 1, Ct at control (average) 21.238
  Ct at Sensitive Breakpoint: 19.368
Escherichia coli [2]; E. coli isolate 1, at sensitive breakpoint
  Molecular Antimicrobial Susceptibility Result: Resistant
Escherichia coli [2]; E. coli isolate 2, Ct at control (average) 21.270
  Ct at Sensitive Breakpoint: 20.665
Escherichia coli [2]; E. coli isolate 2, at sensitive breakpoint
  Molecular Antimicrobial Susceptibility Result: Resistant
Escherichia coli [2]; E. coli isolate 3, Ct at control (average) 22.0995
  Ct at Sensitive Breakpoint: 18.979
Escherichia coli [2]; E. coli isolate 3, at sensitive breakpoint
  Molecular Antimicrobial Susceptibility Result: Resistant
Escherichia coli [2]; E. coli isolate 4, Ct at control (average) 17.5733
  Ct at Sensitive Breakpoint: 17.74
Escherichia coli [2]; E. coli isolate 4, at sensitive breakpoint
  Molecular Antimicrobial Susceptibility Result: Resistant
Escherichia coli [2]; E. coli isolate 5, Ct at control (average) 21.0933
  Ct at Sensitive Breakpoint: 25.48
Escherichia coli [2]; E. coli isolate 5, at sensitive breakpoint
  Molecular Antimicrobial Susceptibility Result: Sensitive (Antimicrobial wells with pathogen load detected below the control wells (typically >2 cycle thresholds later) may be reported as Sensitive)
[3]; [5]
  Molecular Antibiotic Susceptibility Result: Sensitive (Antimicrobial wells with pathogen load detected below the control wells (typically >2 cycle thresholds later) may be reported as Sensitive)
[3]; E. coli, clinical sample of r10-r24, Ct control avg 12.97
  Ct: 24.791
[3]; [6]
  Molecular Antibiotic Susceptibility Result: Sensitive (Antimicrobial wells with pathogen load detected below the control wells (typically >2 cycle thresholds later) may be reported as Sensitive)
[3]; E. coli, clinical sample of r158-r172, Ct control avg 12.894
  Ct: 30.396
[3]; [7]
  Molecular Antibiotic Susceptibility Result: Sensitive (Antimicrobial wells with pathogen load detected below the control wells (typically >2 cycle thresholds later) may be reported as Sensitive)
[3]; K. aerogenes, clinical sample of r136-r150, Ct control avg 13.854
  Ct: 29.137
[3]; [8]
  Molecular Antibiotic Susceptibility Result: Sensitive (Antimicrobial wells with pathogen load detected below the control wells (typically >2 cycle thresholds later) may be reported as Sensitive)
[3]; K. pneumoniae, clinical sample of r121-r135, Ct control avg […]
  Ct: 28.004
[3]; [9]
  Molecular Antibiotic Susceptibility Result: Sensitive (Antimicrobial wells with pathogen load detected below the control wells (typically >2 cycle thresholds later) may be reported as Sensitive)
[3]; M. morganii, clinical sample of r55-r69, Ct control avg 12.09
  Ct: 29.28
[3]; [10]
  Molecular Antibiotic Susceptibility Result: Sensitive (Antimicrobial wells with pathogen load detected below the control wells (typically >2 cycle thresholds later) may be reported as Sensitive)
[3]; M. morganii, clinical sample of r70-r84, Ct control avg 11.677
  Ct: 28.625
[3]; [11]
  Molecular Antibiotic Susceptibility Result: Sensitive (Antimicrobial wells with pathogen load detected below the control wells (typically >2 cycle thresholds later) may be reported as Sensitive)
[3]; P. mirabilis, clinical sample of r25-r39, Ct control avg 11.801
  Ct: 22.976
[3]; [12]
  Molecular Antibiotic Susceptibility Result: Sensitive (Antimicrobial wells with pathogen load detected below the control wells (typically >2 cycle thresholds later) may be reported as Sensitive)
[3]; P. mirabilis, clinical sample of r40-r54, Ct control avg 10.06
  Ct: 28.394
Escherichia coli [4]; E. coli #1 - WDCM 00090 - 6.2×E3
  Traditional Culture Results: Sensitive
Escherichia coli [4]; E. coli #2 - WDCM 00090 - 6.2×E3
  Traditional Culture Results: Sensitive
Escherichia coli [4]; E. coli isolate 1 (Table 3)
  Traditional Culture Result: Resistant
Escherichia coli [4]; E. coli isolate 2 (Table 3)
  Traditional Culture Result: Resistant
Escherichia coli [4]; E. coli isolate 3 (Table 3)
  Traditional Culture Result: Resistant
Escherichia coli [4]; E. coli isolate 4 (Table 3)
  Traditional Culture Result: Resistant
Escherichia coli [4]; E. coli isolate 5 (Table 3)
  Traditional Culture Result: Sensitive
Escherichia coli [4]; E. coli isolate JJ1887
  Traditional Culture Result: Resistant

Reference: patent publication US20250290117A1, “MOLECULAR PHENOTYPIC ANTIMICROBIAL SUSCEPTIBILITY TESTING” (priority 2024, published 2025)
